In patent publication US20080008669A1, “Photostable sunscreen compositions comprising cinnamate ester UV-B filters and s-triazine compounds” (L'OREAL, priority 2006, published 2008):

Assay: Measurement of photostability of the cinnamate UV-B filter in emulsion formulas on PMMA plates under SUN TEST xenon lamp
Type: physicochemical
Settings: Formulas 9-11 (1-4% of Example 1) compared with control Formula 8

SMILES: CCCCOC(=O)c1ccc(Nc2nc(Nc3ccc(C=C(C(=O)OCC(C)(C)C)C(=O)OCC(C)(C)C)cc3)nc(Nc3ccc(C=C(C(=O)OCC(C)(C)C)C(=O)OCC(C)(C)C)cc3)n2)cc1 [Example 1, 2,4-bis-(dineopentyl 4′-aminobenzalmalonate)-6-(butyl 4″-aminobenzoate)-s-triazine]
- Photostability of the cinnamate ester in the presence of the compound: improvement in the photostability of the cinnamate ester is clearly seen
